Test results taken from US12208107B2, “Method and compositions for the treatment of anemia through the inhibition of furin” (Brigham Young University, priority 2016, dated 2025).
Entries after “also recorded” stand apart in the source; their conditions may differ. Residues, ends and D or L forms follow the SMILES beside them.

Assays:
pSTAT3 in Huh7 cells = test: STAT3 phosphorylation Western blot after IL-6 induction, Huh7; type: cell-based, human; conditions: for inhibition of STAT3 phosphorylation (in words): 0-60 μM, IL-6 50 ng/mL
Protocol: For the STAT3 and Smad4 experiments, the cells were seeded at a density of 1.5×10^5 per flask in 5 mL of culture medium and allowed to reach 70% confluency. At time 0, the cells received fresh media and were treated with nelfinavir, ritonavir, darunavir or indinavir, at concentrations ranging from 0 to 60 μM for three hours, and then induced with IL-6 or BMP-9 (Cat, #200-06 and 120-07, PeproTech, Rocky Hill, NJ) 50 ng/mL, for 30 minutes.
(§1) After treatments, cultured cells were washed with ice-cold PBS and lysed by adding ice-cold RIP A buffer containing 50 mM Tris-HCl (pH 8), 150 mM NaCl, 1% Triton X-100, 0.5% sodium deoxycholate, 0.1% SDS, 5 mM EDTA and IX protease/phosphatase cocktail inhibitor (Thermo Fisher Scientific, Waltham, MA), Cells were scraped off the flask and were further disrupted by passing the solution through a 21 gauge needle. The extracts were then transferred to a microfuge tube and centrifuged for 20 min at 12000 rpm. Protein concentration was determined with a Lowry assay and equal amounts of the resulting protein (30 μg) were separated by 8% SDS-PAGE and then transferred to a nitrocellulose membrane (Bio-Rad).
After transfer, the membranes were blocked in Odyssey™ Blocking Buffer (927-40100, LI-COR Biosciences, Lincoln, NE) at room temperature, for 1 hour. Primary antibodies were diluted in blocking solution containing 0.2% Tween and incubated overnight at 4° C. with polyclonal antibody to ferroportin (rabbit, 1:1000 dilution; PAS-2293, Thermo Scientific, Waltham, MA), phospho-STAT3 Tyr705 and STAT3 (1:1000 dilution, (Cat. #9145 and 9139 respectively, Cell Signaling Technology, Beverly, MA). Blots were normalized by probing the membranes with either a p-actin or glucose-6-phosphate dehydrogenase polyclonal antibody (Cat. #3700 and 8866 respectively, Cell Signaling Technology, Beverly, MA). After incubation and washing with PBS-T, the membranes where incubated in the dark, in blocking solution with 0.2% Tween with IRDye 800CW Goat anti-Rabbit IgG and IRDye® 680RD Donkey anti-Mouse IgG (1:10000, LI-COR Biosciences, Lincoln, NE) for 1 hour at room temperature. The proteins were detected and visualized by fluorescence using the Odyssey Classic (LI-COR Biosciences, Lincoln, NE). Densitometry analysis of specific bands was performed with the Image Studio software.
To assess whether PIs abrogate the IL-6 signaling cascade, STATS phosphorylation (pSTAT3) was measured in the hepatocyte cell lines. PIs were incubated with both Huh7 and HepG2 cell lines for 3 hours, before the addition of IL-6 (50 ng/mL) for 30 minutes. Concentrations of PIs ranged from 0-60 μM. Following 30 minutes of IL-6 induction, cells wore immediately lysed, and proteins harvested for Western blot analysis. Untreated hepatocyte control cells are designated as healthy.

[1] = test system: hepcidin-25 in Huh7 cell media; test: Hepcidin-25 quantification in Huh7 cell media by mass spectrometry; type: cell-based, human; conditions: 18 hrs; for production of mature secreted hepcidin: single PI at 15 μM, IL-6 and BMP-9 10 ng/mL each
Protocol: Detection of Hepcidin-25 isoform was completed using an HPLC-MS/MS method with an Eksigent NanoLC HPLC with a Thermo Scientific C-18 reverse-phase column coupled via Thermo Scientific Nanospray ESI soft ionization source to a Thermo Scientific LTQ/Orbitrap XL mass spectrometer (MS). Samples were prepared for MS using an in-house developed enrichment and purification protocol. […]
The mass spectrometer was tuned and calibrated to a pure human recombinant hepcidin-25 solution. […] Peaks with isotopic envelopes corresponding to [M+5H+] and [M+6H+], 651.8 m/z and 543.3 m/z for 2-iodoacetamide, 818.5 m/z and 682.2 m/z for 2-iodo-N-(phenylethyl)-acetamide respectively, were detected in all samples and were not observed in the protocol blank. […] Quantification was completed using in-house developed ion chromatogram extractor software that allowed positive isolation of unfragmented peaks by m/z and chromatographic elution windows for total spectral ion count summation. Samples were intensity normalized to hepcidin-25 detected in healthy culture media for each dataset.
Sample preparation consisted of three phases: 1) ultra-filtration to remove large abundant proteins and media debris; 2) earboxamidomethylation of cysteine residues; and 3) 2-phase extraction of lipid substituents and subsequent concentration by speed-vac. […] Data was recorded at a resolution of 100,000 over the course of a two-hour method. Detected intensities were totaled using in-house developed ion-chromatogram extractor software. […]

Recombinant human furin = molecular target: T1, Recombinant human furin (Homo sapiens, UniProt P09958); test: In vitro fluorogenic furin activity assay; type: biochemical; conditions: for inhibition of furin activity in the drug screen: fluorogenic substrate BOC-Arg-Val-Arg-Arg-AMC, FIG. 9 / FIG. 22; for fluorescence (furin activity): single drug at 110 and 220 μM, 50-minute time course
T1 construct: purchased New England BioLabs (Ipswich, MA)
T1 sequence (P09958 108-794): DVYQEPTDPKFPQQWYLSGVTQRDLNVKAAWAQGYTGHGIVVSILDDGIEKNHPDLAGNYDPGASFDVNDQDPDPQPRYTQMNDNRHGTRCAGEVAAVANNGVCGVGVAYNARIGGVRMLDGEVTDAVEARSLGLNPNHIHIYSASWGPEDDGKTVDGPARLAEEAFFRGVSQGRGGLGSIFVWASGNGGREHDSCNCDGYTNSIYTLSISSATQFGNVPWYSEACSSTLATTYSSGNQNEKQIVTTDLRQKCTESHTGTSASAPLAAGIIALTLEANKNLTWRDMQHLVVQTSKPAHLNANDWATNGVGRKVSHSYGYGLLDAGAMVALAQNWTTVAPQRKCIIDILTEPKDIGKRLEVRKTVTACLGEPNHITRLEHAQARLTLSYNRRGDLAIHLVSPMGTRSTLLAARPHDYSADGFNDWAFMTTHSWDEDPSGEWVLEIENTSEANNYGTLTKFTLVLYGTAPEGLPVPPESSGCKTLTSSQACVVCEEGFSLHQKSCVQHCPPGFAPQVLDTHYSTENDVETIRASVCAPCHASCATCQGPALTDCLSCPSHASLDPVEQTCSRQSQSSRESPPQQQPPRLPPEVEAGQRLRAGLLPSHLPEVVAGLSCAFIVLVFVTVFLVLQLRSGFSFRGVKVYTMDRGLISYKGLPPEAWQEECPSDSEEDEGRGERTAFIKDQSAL
Protocol: Recombinant human furin was purchased from New England BioLabs (Ipswich, MA). Fluorogenic furin convertase substrate BOC-Arg-Val-Arg-Arg-AMC (AMC=7-Amino-4-methylcoumarin) from Enzo Life Sciences (Farmingdale, NY) and HIV aspartyl protease inhibitors (Sigma) were dissolved in DMSO. Protease inhibitory′ drugs were prepared at a. concentration of 10 mg/mL and stored at room temperature. Furin Inhibitor II chloromethylketone was purchased from EMD Millipore (Darmstadt, Germany).
The assay was performed at pH 7.5 in buffer 50 mM HEPES, 1 mM CaCl2, 1 mM β-mercaptoethanol, 0.2 mg/mL BSA. In a total volume of 100 μL, the final concentration per well of substrate enzyme was 10 μM and 1 U/well respectively. All assays were performed at 37° C. in a 96-well fluorometer (BioTek Synergy H4 Hybrid reader) with an excitation wavelength of 345 nm and an emission wavelength of 420 nm.
Inhibitory small molecules were incubated with enzyme for 1 hour at 37° C. prior to addition of substrate to initiate the reaction. All assays were performed in triplicate. Inhibition constants were calculated based on methods previously described (Lineweaver, H. & Burk, D. The Determination of Enzyme Dissociation Constants. J. Am. Chem. Soc. 56, 658-666 (1934)). […]
The molecular docking studies predicted that PIs bind to the catalytic site of furin as well as to a putative allosteric site on furin (FIGS. 7A and 7B). A fluorescence assay was used to monitor furin activity. Furin has substrate specificity for the multi-basic consensus amino-acid sequence of Arg-X-Lys/Arg-Arg (RXRR) at the cleavage site, where X represents a neutral, polar amino acid. Peptide substrates including the furin cleavage sequence having an attached fluorescent tag were used. A fluorescence tag is quenched when it is attached to the peptide, but when furin cleaves the peptide the fluorophore is released and is able to fluoresce. The inhibitory effect of the PIs in this assay can be characterized through a positive control, in which furin actively cleaves substrate without the presence of an inhibitor.

[2] = test system: ferroportin in HepG2 cells; test: Ferroportin Western blot, HepG2; type: cell-based, human; conditions: HepG2, IL-6/BMP-9 10 ng/mL each; ND 15 μM, CMK 25 μM
Protocol: (§2) Cells were seeded at a density of 1.5×10^6 per T25 flask in 5 mL culture medium and allowed to reach 50% confluency. At time 0, the cells received fresh media and were then simultaneously treated with either nelfinavir or darunavir alone, or nelfinavir and darunavir at varying concentrations (2.5/2.5 μM, 5/5 μM and 7.5/7.5 μM) and induced with IL-6 and BMP-9 (10 ng/mL each) for 18 hours. After 18 hours, 2 mL of media were collected, aliquoted and flash frozen for mass spectrometry (MS) analysis. Control groups not being induced with cytokines, are designated as ‘Healthy’.
as §1, with “(Bio-Rad). […]” for “(Bio-Rad).”

[3] = test system: prohepcidin in Huh7 cell media; test: Prohepcidin secretion into Huh7 cell media; type: cell-based, human
Protocol: as §2

[4] = test system: HAMP gene expression in Huh7 hepatocytes; test: HAMP gene expression (RT-qPCR), Huh7; type: cell-based, human; conditions: IL-6/BMP-9 induced Huh7, 18 hrs; ND 15 μM, CMK 25 μM
Protocol: Cells were seeded at a density of 1.5×10^6 per T25 flask in 5 mL culture medium and allowed to reach 50% confluency. At time 0, the cells received fresh media and were then simultaneously treated with either nelfinavir or darunavir alone, or nelfinavir and darunavir at varying concentrations (2.5/2.5 μM, 5/5 μM and 7.5/7.5 μM) and induced with IL-6 and BMP-9 (10 ng/mL each) for 18 hours. […] Control groups not being induced with cytokines, are designated as ‘Healthy’.
RNA was isolated by washing tissue culture in 1×PBS, before applying QIAzol lysis reagent (Cat #79306). RNA was then purified on RNeasy mini kit columns (Cat #74104) from Qiagen. All samples were treated with Qiagen DNase (Cat #79254). Two micrograms of RNA were used for reverse transcription and subsequent SYBR® Green ROX real time PCR for the genes of interest. Reverse transcription kits (Cat #330401) and SYBR Green real-time PCR master mixes (Cat #330523) were from Qiagen (Louisville, KY). […]
Real time quantitative PCR was performed on an Applied Biosciences StepOne plus instrument and analyzed with StepOne software v2.3. The relative amounts of transcripts from each gene were normalized to reference gene GAPDH and calculated as follows: ΔΔCT=the average ΔCT of sample B−the average ΔCT of sample B, and their fold difference=2−^ΔΔCT.

[5] = test system: Female Lewis rats (PG-LPS model of ACI); test: PG-LPS rat model of anemia of chronic inflammation; type: in vivo; conditions: for serum hepcidin, lower than in PG-LPS rats / serum prohepcidin, higher than in PG-LPS rats: ELISA; for Hb (g/dL) Day 0 / Hb (g/dL) Day 62: nelfinavir with ritonavir by oral gavage
[6] = PG-LPS rats, listed as nelfinavir
[7] = Treated Control (no PG-LPS), n = 4

CC(C)(C)NC(=O)[C@@H]1CN(Cc2cccnc2)CCN1C[C@@H](O)C[C@@H](Cc1ccccc1)C(=O)N[C@H]1c2ccccc2C[C@H]1O [Indinavir]
inhibition of STAT3 phosphorylation (in words) (pSTAT3 in Huh7 cells): no signs of pSTAT3 inhibition; also recorded: did not show any statistically significant inhibition; also recorded: Neither darunavir nor indinavir inhibits STAT3 phosphorylation

CC(C)CN(C[C@@H](O)[C@H](Cc1ccccc1)NC(=O)O[C@H]1CO[C@H]2OCC[C@H]21)S(=O)(=O)c1ccc(N)cc1 [Darunavir, [(1R, 5S, 6R)-2,8-dioxabicyclo[3.3.0]oct-6-yl] N-[(2S, 3R)-4-[(4-aminophenyl)sulfonyl-(2-methylpropyl)amino]-3-hydroxy-1-phenyl-butan-2-yl] carbamate]
production of mature secreted hepcidin [1]: back to basal levels
inhibition of STAT3 phosphorylation (in words) (pSTAT3 in Huh7 cells): no signs of pSTAT3 inhibition; also recorded: did not show any statistically significant inhibition; also recorded: Neither darunavir nor indinavir inhibits STAT3 phosphorylation
type of inhibition (Lineweaver-Burk) (Recombinant human furin): uncompetitive inhibition
inhibition of furin activity in the drug screen (Recombinant human furin): three best inhibitors
fluorescence (furin activity) (Recombinant human furin): decreased fluorescence

CCCCCCCCCC(=O)N[C@@H](CCCN=C(N)N)C(=O)N[C@H](C(=O)N[C@@H](CCCCN)C(=O)N[C@@H](CCCN=C(N)N)C(=O)CCl)C(C)C [Dec-RVKR-CMK] (HELM PEPTIDE1{[CCCCCCCCCC(=O)[*:2]].R.V.K.R.[ClC[*:1]]}$$$$V2.0)
increase of ferroportin expression compared to IL-6/BMP-9 control [2]: 109%
prohepcidin in media of cytokine-induced cells (in words) ([3]; IL-6/BMP-9 10 ng/mL each, 18 hr, ND 7.5 μM each, CMK 25 μM): significantly raised
secreted prohepcidin concentration, healthy cell groups ([3]; no cytokine induction): No significant difference
hepcidin-25 in media of cytokine-induced cells ([1]; IL-6/BMP-9 10 ng/mL each, ND 15 μM (7.5 μM each), CMK 25 μM): statistically significant drop in mature hepcidin-25 is not observed
inhibition of furin activity in the drug screen (Recombinant human furin): full inhibition of furin
HAMP gene expression [4]: this phenomenon was not observed

Cc1c(O)cccc1C(=O)N[C@@H](CSc1ccccc1)[C@H](O)CN1C[C@H]2CCCC[C@H]2C[C@H]1C(=O)NC(C)(C)C [Nelfinavir]
iron in bone marrow, PG-LPS rats ([5]; ICP-MS): increased significantly
iron in serum, PG-LPS rats ([5]; ICP-MS): increased significantly
liver iron content, PG-LPS rats ([5]; PG-LPS PI treated group): dropped
more serum iron than PG-LPS treated rats ([5]; PG-LPS rats): ~25%
recovery of hemoglobin and hematocrit ([5]; PG-LPS rats): did not demonstrate a recovery
serum hepcidin, lower than in PG-LPS rats ([5]; PG-LPS rats): ~2 fold
serum prohepcidin, higher than in PG-LPS rats ([5]; PG-LPS rats): ~2.5 fold
serum hepcidin, lower than in PG-LPS rats [5, 6]: approximately 2 fold
serum prohepcidin, higher than in PG-LPS rats [5, 6]: approximately 2.5 fold
recovery of hemoglobin and hematocrit [5, 6]: did not significantly recover
increase of prohepcidin ([5]; PG-LPS rats, ritonavir co-administered): 148%
inhibition of mature hepcidin production ([5]; PG-LPS rats, therapeutic serum concentration 4 ng/mL, ritonavir co-administered): 47%
transcription of HAMP mRNA in liver ([5]; PG-LPS treated animals, qPCR): did not show any statistically significant changes
Hb (g/dL) Day 0 [5, 7]: 14.4 ± 0.4 g/dL
Hb (g/dL) Day 62 [5, 7]: 15.2 ± 0.2 g/dL
HCT (%) Day 0 ([5]; Treated Control, n = 4): 41.5 ± 0.9%
HCT (%) Day 62 ([5]; Treated Control, n = 4): 44.6 ± 2.7%
MCV (fl) Day 0 ([5]; Treated Control, n = 4): 55.3 ± 0.7 fL
MCV (fl) Day 62 ([5]; Treated Control, n = 4): 49.7 ± 0.5 fL
RDW (%) Day 0 ([5]; Treated Control, n = 4): 12.6 ± 0.1%
RDW (%) Day 62 ([5]; Treated Control, n = 4): 37.2 ± 0.7%
HCT (%) Day 0 ([5]; Treated PG-LPS, n = 7): 41.5 ± 2.4%
HCT (%) Day 62 ([5]; Treated PG-LPS, n = 7): 37.6 ± 3.9%
MCV (fl) Day 0 ([5]; Treated PG-LPS, n = 7): 55.8 ± 1.5 fL
MCV (fl) Day 62 ([5]; Treated PG-LPS, n = 7): 46.7 ± 0.6 fL
RDW (%) Day 0 ([5]; Treated PG-LPS, n = 7): 13.6 ± 2.5%
RDW (%) Day 62 ([5]; Treated PG-LPS, n = 7): 42.8 ± 1.2%
Hb (g/dL) Day 0 ([5]; Treated PG-LPS, n = 7): 14.1 ± 1.1 g/dL
Hb (g/dL) Day 62 ([5]; Treated PG-LPS, n = 7): 13.0 ± 1.1 g/dL
liver ferroportin, PG-LPS rats (in words) ([5]; Western blot): significantly higher
increase in liver ferroportin, healthy rats ([5]; healthy treated rats): ~3 fold
hepcidin levels, healthy rats ([5]; healthy treated vs healthy): slightly higher
liver iron content, healthy rats ([5]; healthy treated vs healthy): dropped significantly
prohepcidin levels, healthy rats ([5]; healthy treated vs healthy): much higher
serum iron, healthy rats ([5]; healthy treated vs healthy): not significantly different
increase of ferroportin expression in animal liver ([5]; ritonavir co-administered): 2.5 fold
production of mature secreted hepcidin [1]: back to basal levels
inhibition of STAT3 phosphorylation (in words) (pSTAT3 in Huh7 cells): inhibiting STAT3 phosphorylation in a dose dependent manner; also recorded: concentration dependent manner; also recorded: dose dependent inhibition
inhibition at 5 µM (pSTAT3 in Huh7 cells; Homo sapiens, Huh-7, 5 μM, 3 hrs before IL-6 50 ng/mL 30 min): 27%
inhibition at 15 µM (pSTAT3 in Huh7 cells; Homo sapiens, Huh-7, 15 μM, 3 hrs before IL-6 50 ng/mL 30 min): 46%
type of inhibition (Lineweaver-Burk) (Recombinant human furin): competitive inhibition
inhibition of furin activity in the drug screen (Recombinant human furin): three best inhibitors
fluorescence (furin activity) (Recombinant human furin): decreased fluorescence
HAMP gene expression [4]: significant inhibitory effect

CC(C)c1nc(CN(C)C(=O)N[C@H](C(=O)N[C@@H](Cc2ccccc2)C[C@H](O)[C@H](Cc2ccccc2)NC(=O)OCc2cncs2)C(C)C)cs1 [Ritonavir]
inhibition of STAT3 phosphorylation (in words) (pSTAT3 in Huh7 cells): not concentration dependent
inhibition of STAT3 phosphorylation (in words) (pSTAT3 in Huh7 cells; listed as ritonavir): dose dependent inhibition
inhibition of STAT3 phosphorylation (pSTAT3 in Huh7 cells; all concentrations tested): ~25%
average pSTAT3 inhibition (pSTAT3 in Huh7 cells; doses 5-30 μM): 27%
